From PubChem BioAssay (NCI) come the findings set out here.

Test systems include SF-539 CNS; MDA-MB-231 breast; CAKI-1 renal; HCT-15 colon; MCF7 breast; NCI-H522 lung; UACC-257 melanoma; HL-60(TB) leukemia; EKVX NSCLC; OVCAR-5 ovarian; RPMI-8226 leukemia; 786-0 renal; LOX IMVI melanoma; DU-145 prostate; SK-MEL-2 melanoma; UACC-62 melanoma; HCC-2998 colon; NCI-H460 lung.
Holding throughout (test): NCI tumour cell line growth inhibition, 48 h

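Results reflect a 48-hour exposure of cells in 96-well plates to compound at five concentrations. TGI: concentration producing complete growth inhibition.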

As for `O=C(O)[C@@]1(Cc2ccc(O)cc2)C[C@@H]2Cc3ccccc3N2N1`, the TGI with SF-539 CNS, with MDA-MB-231 breast, in the assay with CAKI-1 renal, in the assay on HCT-15 colon, in the assay on MCF7 breast and with NCI-H522 lung was greater than 100 µM throughout. Moreover, the TGI in the assay on UACC-257 melanoma, in the assay on HL-60(TB) leukemia, in the assay on EKVX NSCLC, in the assay on OVCAR-5 ovarian, with RPMI-8226 leukemia and in the assay on 786-0 renal was greater than 100 µM throughout. For the same compound, the TGI in the assay with LOX IMVI melanoma, in the assay with DU-145 prostate, in the assay on SK-MEL-2 melanoma and in the assay on UACC-62 melanoma was greater than 100 µM each time.

With `CC1NC(=O)c2c(-c3ccccc3)nn(-c3ccccc3)c2NC1=O` (configuration not stated), the TGI in the assay with MDA-MB-231 breast, in the assay with HCC-2998 colon, with CAKI-1 renal, with HCT-15 colon, in the assay on MCF7 breast and with NCI-H522 lung was greater than 100 µM each time. For the same compound, the TGI in the assay on UACC-257 melanoma, in the assay on EKVX NSCLC, with OVCAR-5 ovarian, in the assay on RPMI-8226 leukemia, with 786-0 renal and in the assay with LOX IMVI melanoma was greater than 100 µM in each case. Besides, the TGI in the assay with NCI-H460 lung, in the assay with DU-145 prostate, with SK-MEL-2 melanoma and in the assay on UACC-62 melanoma was greater than 100 µM in each case.

With `CCOC(=O)c1ccc(N(C)Cc2cnc3nc(N)nc(N)c3n2)cc1`, the TGI was 33.9 µM with SF-539 CNS; 81.7 µM in the assay on MDA-MB-231 breast; 45 µM in the assay on CAKI-1 renal; greater than 100 µM in the assay with HCT-15 colon; 49.8 µM with MCF7 breast; greater than 100 µM with UACC-257 melanoma. Moreover, the TGI in the assay on HL-60(TB) leukemia, with EKVX NSCLC, with OVCAR-5 ovarian, in the assay with RPMI-8226 leukemia, in the assay with 786-0 renal and with LOX IMVI melanoma was greater than 100 µM throughout. The TGI in the assay on NCI-H460 lung was greater than 100 µM; in the assay with DU-145 prostate, greater than 100 µM; with SK-MEL-2 melanoma, 80 µM; with UACC-62 melanoma, 33.8 µM.

Take `CC(=O)OC12c3ccccc3C(c3ccccc31)C1C(=O)N(c3ccccc3O)C(=O)C12` (configuration not stated): the TGI with SF-539 CNS, in the assay on MDA-MB-231 breast, in the assay on HCC-2998 colon, in the assay with CAKI-1 renal, in the assay with HCT-15 colon and in the assay on MCF7 breast was greater than 100 µM in each case. The TGI in the assay with UACC-257 melanoma, in the assay on HL-60(TB) leukemia, with EKVX NSCLC, in the assay on OVCAR-5 ovarian, in the assay on RPMI-8226 leukemia and in the assay on 786-0 renal was greater than 100 µM in each case. Further, the TGI in the assay with LOX IMVI melanoma, in the assay on NCI-H460 lung and in the assay on DU-145 prostate was greater than 100 µM throughout.

In the case of `CC(=O)OCc1cc(OC(C)=O)c2cc3c(OC(C)=O)cccc3c(OC(C)=O)c2c1`, the TGI in the assay on MDA-MB-231 breast was 58.9 µM; in the assay with HCC-2998 colon it was 31.6 µM; with HCT-15 colon, 31.1 µM; in the assay on MCF7 breast it was 38.9 µM; in the assay with UACC-257 melanoma, 49.1 µM; in the assay with HL-60(TB) leukemia it was 47.5 µM. The TGI in the assay on EKVX NSCLC is 34.1 µM; in the assay on OVCAR-5 ovarian it was 46.4 µM; in the assay on RPMI-8226 leukemia, 44.6 µM; in the assay with 786-0 renal, 34.4 µM; in the assay with NCI-H460 lung, 23.8 µM; in the assay with DU-145 prostate, 43.5 µM. In the assay with UACC-62 melanoma, this compound came in with a TGI of 38.7 µM.

Consider `Clc1ccc(-c2cn3c(nc4ccccc43)c(/C=C/c3cccs3)n2)cc1`, for which the TGI with SF-539 CNS, in the assay with MDA-MB-231 breast, with HCC-2998 colon, in the assay on HCT-15 colon, in the assay on MCF7 breast and in the assay with UACC-257 melanoma was greater than 100 µM throughout. Besides, the TGI with HL-60(TB) leukemia, in the assay on OVCAR-5 ovarian, in the assay with RPMI-8226 leukemia, with 786-0 renal, with LOX IMVI melanoma and in the assay on NCI-H460 lung was greater than 100 µM throughout. Further, the TGI in the assay on DU-145 prostate, in the assay with SK-MEL-2 melanoma and in the assay on UACC-62 melanoma was greater than 100 µM throughout.

For `O=c1[nH]ncc2[nH]c(-c3ccccc3)cc12`, the TGI in the assay on MDA-MB-231 breast, in the assay on HCC-2998 colon, in the assay on CAKI-1 renal, in the assay with HCT-15 colon, in the assay with MCF7 breast and in the assay on UACC-257 melanoma was greater than 100 µM each time. Further, the TGI in the assay with HL-60(TB) leukemia, in the assay on EKVX NSCLC, in the assay on OVCAR-5 ovarian, in the assay on RPMI-8226 leukemia, in the assay with 786-0 renal and in the assay with LOX IMVI melanoma was greater than 100 µM each time. Besides, the TGI is greater than 100 µM with NCI-H460 lung, greater than 100 µM with DU-145 prostate, 71 µM with SK-MEL-2 melanoma and greater than 100 µM in the assay on UACC-62 melanoma.

On to `N=C(N)SCCSC(=N)N`, for which the TGI in the assay on MDA-MB-231 breast, with HCC-2998 colon, with CAKI-1 renal, with HCT-15 colon, in the assay with MCF7 breast and in the assay with NCI-H522 lung was greater than 100 µM each time. Also, the TGI with UACC-257 melanoma, in the assay with EKVX NSCLC, in the assay with OVCAR-5 ovarian, in the assay with RPMI-8226 leukemia, in the assay on 786-0 renal and with LOX IMVI melanoma was greater than 100 µM each time. Also, the TGI with NCI-H460 lung, in the assay with DU-145 prostate and in the assay on UACC-62 melanoma was greater than 100 µM each time.

For the compound `Cn1c(=O)oc2cc(C(=O)CN3CCN(Cc4ccc5c(c4)OCO5)CC3)c(Cl)cc21`, the TGI in the assay with SF-539 CNS, in the assay with MDA-MB-231 breast, in the assay with HCC-2998 colon, in the assay on CAKI-1 renal, with HCT-15 colon and in the assay with MCF7 breast was greater than 100 µM each time. Moreover, the TGI with HL-60(TB) leukemia, with OVCAR-5 ovarian, in the assay on RPMI-8226 leukemia, in the assay on 786-0 renal, in the assay with LOX IMVI melanoma and with NCI-H460 lung was greater than 100 µM throughout. Moreover, the TGI with DU-145 prostate, in the assay on SK-MEL-2 melanoma and in the assay on UACC-62 melanoma was greater than 100 µM throughout.
